Target: T1, Chymotrypsin-C (Homo sapiens, UniProt Q99895)
T1 sequence (Q99895 whole entry): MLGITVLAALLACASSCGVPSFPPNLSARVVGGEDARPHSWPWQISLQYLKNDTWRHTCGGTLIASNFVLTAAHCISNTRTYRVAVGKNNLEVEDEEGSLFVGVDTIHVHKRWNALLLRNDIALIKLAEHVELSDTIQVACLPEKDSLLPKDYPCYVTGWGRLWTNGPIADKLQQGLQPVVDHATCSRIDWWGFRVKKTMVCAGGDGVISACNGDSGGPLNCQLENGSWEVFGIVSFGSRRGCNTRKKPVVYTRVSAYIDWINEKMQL
Assay: ChEBML_197813
Source text: Inhibitory activity against Serine protease chymotrypsin

C=C(c1cccc(OC(=O)N[C@@H](CC(C)C)C(=O)N(CCN(Cc2ccc(C(=O)OC)cc2)Cc2ccc(C(=O)OC)cc2)Cc2ccc(Cl)cc2)c1)c1sc(=S)n(CC(=O)OCC)c1O [4-{[(2-{(4-Chloro-benzyl)-[2-(3-{1-[3-ethoxycarbonylmethyl-4-oxo-2-thioxo-thiazolidin-(5Z)-ylidene]-ethyl}-phenoxycarbonylamino)-4-methyl-pentanoyl]-amino}-ethyl)-amino-methyl]di-benzoic acid methyl ester]
IC50: 210 µM
